Drawing on publication PMC12415923, this text covers ring closure, isolated yield for 17 compounds.

A short description of data set [1]: Two-fold Williamson etherification: 3,3'-bis(4-hydroxyaryl)-BINOL-MOM diol (Me/H/iPr-2) + oligoethylene glycol bistosylate (1 equiv), Cs2CO3 (ca. 2-2.5 equiv); ring closure = phenoxide O-alkylation by tosylate. The conditions noted are these: the molecule shown is the open-chain precursor, MeCN, 1.0 mM, 85.0 °C.
The nature of data set [2]: Two-fold Williamson etherification: BINOL bis(chloroethoxyethyl ether) (Me/H/iPr-6_2) + BINOL bisphenol (Me/H/iPr-2), 1:1, Cs2CO3 (3.2 equiv); ring closure = phenoxide O-alkylation by alkyl chloride. The conditions noted are these: the molecule shown is the open-chain precursor; 42-membered ring; MeCN; 9.0 mM; 85.0 °C; 6.0 h.

Consider `COCOc1c(-c2ccc(O)cc2)cc2ccccc2c1-c1c(OCOC)c(-c2ccc(OCCOCCOCCOCCOCCOCCOS(=O)(=O)c3ccc(C)cc3)cc2)cc2ccccc12` [H-M1_6], for which the ring closure, isolated yield in data set [1] (33-membered ring) turned out to be 29.7%.
Regarding `COCOc1c(-c2ccc(OCCOCCCl)cc2)cc2ccccc2c1-c1c(OCOC)c(-c2ccc(OCCOCCOc3c(C(C)C)cc(-c4cc5ccccc5c(-c5c(OCOC)c(-c6cc(C(C)C)c(O)c(C(C)C)c6)cc6ccccc56)c4OCOC)cc3C(C)C)cc2)cc2ccccc12` [(S,S)-HiPr-M2_2], in data set [2], the ring closure, isolated yield was determined as 72.7%.
`COCOc1c(-c2cc(C)c(O)c(C)c2)cc2ccccc2c1-c1c(OCOC)c(-c2cc(C)c(OCCOCCOCCOCCOCCOCCOCCOCCOS(=O)(=O)c3ccc(C)cc3)c(C)c2)cc2ccccc12` [Me-M1_8]: the ring closure, isolated yield in data set [1] (39-membered ring) was determined as 38.2%.
Consider `COCOc1c(-c2cc(C(C)C)c(O)c(C(C)C)c2)cc2ccccc2c1-c1c(OCOC)c(-c2cc(C(C)C)c(OCCOCCOCCOCCOCCOCCOCCOS(=O)(=O)c3ccc(C)cc3)c(C(C)C)c2)cc2ccccc12` [iPr-M1_7], for which the ring closure, isolated yield in data set [1] (36-membered ring) came out at 45.5%.
For the compound `COCOc1c(-c2ccc(O)cc2)cc2ccccc2c1-c1c(OCOC)c(-c2ccc(OCCOCCOCCOCCOCCOCCOCCOCCOS(=O)(=O)c3ccc(C)cc3)cc2)cc2ccccc12` [H-M1_8], the ring closure, isolated yield in data set [1] (39-membered ring) was determined as 40.3%.
Turning to `COCOc1c(-c2cc(C(C)C)c(O)c(C(C)C)c2)cc2ccccc2c1-c1c(OCOC)c(-c2cc(C(C)C)c(OCCOCCOCCOCCOCCOCCOS(=O)(=O)c3ccc(C)cc3)c(C(C)C)c2)cc2ccccc12` [iPr-M1_6], the ring closure, isolated yield in data set [1] (33-membered ring) was 41.2%.
For the compound `COCOc1c(-c2cc(C)c(O)c(C)c2)cc2ccccc2c1-c1c(OCOC)c(-c2cc(C)c(OCCOCCOCCOCCOCCOCCOCCOS(=O)(=O)c3ccc(C)cc3)c(C)c2)cc2ccccc12` [Me-M1_7], in data set [1] (36-membered ring), the ring closure, isolated yield was 75%.
Turning to `COCOc1c(-c2cc(C)c(O)c(C)c2)cc2ccccc2c1-c1c(OCOC)c(-c2cc(C)c(OCCOCCOc3c(C)cc(-c4cc5ccccc5c(-c5c(OCOC)c(-c6cc(C)c(OCCOCCCl)c(C)c6)cc6ccccc56)c4OCOC)cc3C)c(C)c2)cc2ccccc12` [Me-M2_2], the ring closure, isolated yield in data set [2] came to 59.4%.
As for `COCOc1c(-c2cc(C)c(O)c(C)c2)cc2ccccc2c1-c1c(OCOC)c(-c2cc(C)c(OCCOCCOCCOCCOCCOS(=O)(=O)c3ccc(C)cc3)c(C)c2)cc2ccccc12` [Me-M1_5], the ring closure, isolated yield in data set [1] (30-membered ring) was determined as 21.1%.
Still for that read-out and setting: then `COCOc1c(-c2ccc(O)cc2)cc2ccccc2c1-c1c(OCOC)c(-c2ccc(OCCOCCOCCOCCOCCOS(=O)(=O)c3ccc(C)cc3)cc2)cc2ccccc12` [H-M1_5], with 11%.
With `COCOc1c(-c2cc(C(C)C)c(O)c(C(C)C)c2)cc2ccccc2c1-c1c(OCOC)c(-c2cc(C(C)C)c(OCCOCCOc3c(C(C)C)cc(-c4cc5ccccc5c(-c5c(OCOC)c(-c6cc(C(C)C)c(OCCOCCCl)c(C(C)C)c6)cc6ccccc56)c4OCOC)cc3C(C)C)c(C(C)C)c2)cc2ccccc12` [iPr-M2_2], the ring closure, isolated yield in data set [2] stood at 76.5%.
`COCOc1c(-c2cc(C(C)C)c(O)c(C(C)C)c2)cc2ccccc2c1-c1c(OCOC)c(-c2cc(C(C)C)c(OCCOCCOCCOCCOCCOCCOCCOCCOS(=O)(=O)c3ccc(C)cc3)c(C(C)C)c2)cc2ccccc12` [iPr-M1_8]: the ring closure, isolated yield in data set [1] (39-membered ring) was 53.3%.
Consider `COCOc1c(-c2ccc(O)cc2)cc2ccccc2c1-c1c(OCOC)c(-c2ccc(OCCOCCOCCOCCOCCOCCOCCOS(=O)(=O)c3ccc(C)cc3)cc2)cc2ccccc12` [H-M1_7], for which, in data set [1] (36-membered ring), the ring closure, isolated yield came out at 32.1%.
With `COCOc1c(-c2ccc(OCCOCCCl)cc2)cc2ccccc2c1-c1c(OCOC)c(-c2ccc(OCCOCCOc3c(C(C)C)cc(-c4cc5ccccc5c(-c5c(OCOC)c(-c6cc(C(C)C)c(O)c(C(C)C)c6)cc6ccccc56)c4OCOC)cc3C(C)C)cc2)cc2ccccc12` [(R,S)-HiPr-M2_2 ((R)-H unit, (S)-iPr unit)], the ring closure, isolated yield in data set [2] stood at 48.9%.
For `COCOc1c(-c2cc(C(C)C)c(O)c(C(C)C)c2)cc2ccccc2c1-c1c(OCOC)c(-c2cc(C(C)C)c(OCCOCCOCCOCCOCCOS(=O)(=O)c3ccc(C)cc3)c(C(C)C)c2)cc2ccccc12` [iPr-M1_5], in data set [1] (30-membered ring), the ring closure, isolated yield was 19.6%.
As to `COCOc1c(-c2ccc(O)cc2)cc2ccccc2c1-c1c(OCOC)c(-c2ccc(OCCOCCOc3ccc(-c4cc5ccccc5c(-c5c(OCOC)c(-c6ccc(OCCOCCCl)cc6)cc6ccccc56)c4OCOC)cc3)cc2)cc2ccccc12` [H-M2_2], the ring closure, isolated yield in data set [2] is 77.8%.
`COCOc1c(-c2cc(C)c(O)c(C)c2)cc2ccccc2c1-c1c(OCOC)c(-c2cc(C)c(OCCOCCOCCOCCOCCOCCOS(=O)(=O)c3ccc(C)cc3)c(C)c2)cc2ccccc12` [Me-M1_6]: the ring closure, isolated yield in data set [1] (33-membered ring) worked out at 53.7%.
